Starred links: 1 amine or outer side, 2 acyl side, 3 side chain; linkers in the order of their positions; H or OH if unused. Positions of bridges follow the written chain, without caps; N, C: chain ends. Non-standard residues stand in square brackets, D forms with d. Residues, ends and D or L forms follow the SMILES beside them. *: point of attachment. NMeF = CN[C@@H](Cc1ccccc1)C(=O)O; NMeβAla = CN(CCC(=O)[*:2])[*:1]; NMeL = CN[C@@H](CC(C)C)C(=O)O; NMeV = CN[C@H](C(=O)O)C(C)C; NMeA = CN[C@@H](C)C(=O)O; Piperidide = C1CCN(*)CC1; Sar = CNCC(=O)O
Tests used:
[1] = PAMPA (parallel artificial membrane permeability assay); type: in vitro ADME; settings: PAMPA; membrane permeation rate (Pe); 50 mM MOPSO buffer pH 6.5 with 5.0% glycocholic acid, 37° C., 18 hours; read-out: iPAMPA Pe
Method in brief: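 Artificial membrane was 10% (w/v) egg lecithin plus 0.5% (w/v) cholesterol in dodecane on a PVDF filter. A 10 mM DMSO stock was added at 0.5% (v/v) to donor buffer (50 mM MOPSO, pH 6.5, 5.0% glycocholic acid). After 18 h at 37 °C, LC/MS or LC/UV gave donor and acceptor levels for Pe.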

[2] = Metabolic stability in human hepatic microsome; type: in vitro ADME; settings: microsomes, pH 7.4; human hepatic microsome, NADPH(+); read-out: CL NADPH(+)

| SMILES | Papp at 18 hours, 50 µM [1] | microsomal CLint at 1 uM [2] |
| --- | --- | --- |
| CC(C)C[C@H]1C(=O)N(C)[C@@H](CC(C)C)C(=O)N[C@H](C(=O)N(C)[C@@H](Cc2ccccc2)C(=O)N[C@@H](C)C(=O)N2CCCCC2)CC(=O)N(C)[C@@H](C)C(=O)N(C)[C@@H](Cc2ccccc2)C(=O)N(C)[C@@H](CC(C)C)C(=O)N[C@@H]([C@@H](C)O)C(=O)N(C)[C@@H](C)C(=O)N[C@@H](C(C)C)C(=O)N1C [DP-199] ([NMeA][NMeF][NMeL]T[NMeA]V[NMeL][NMeL]D[NMeF]A-Piperidide; lactam N-9) | 59 ×10⁻⁶ cm/s | 170 µL/min/mg |
| CC(C)C[C@H]1C(=O)N[C@@H](C(C)C)C(=O)N(C)[C@@H](Cc2ccccc2)C(=O)N(C)[C@@H](C)C(=O)N[C@@H](Cc2ccccc2)C(=O)N[C@H](C(=O)N(C)[C@@H](Cc2ccccc2)C(=O)N[C@@H](C)C(=O)N2CCCCC2)CC(=O)N(C)CCC(=O)N[C@@H]([C@@H](C)O)C(=O)N(C)CC(=O)N1C [DP-200] ([NMeβAla]T[Sar][NMeL]V[NMeF][NMeA]FD[NMeF]A-Piperidide; lactam N-9) | 22 ×10⁻⁶ cm/s | 57 µL/min/mg |
| CC(C)C[C@H]1C(=O)N(C)[C@@H](Cc2ccccc2)C(=O)N[C@@H]([C@@H](C)O)C(=O)N(C)[C@@H](C)C(=O)N[C@@H](C(C)C)C(=O)N(C)[C@@H](CC(C)C)C(=O)N(C)[C@@H](CC(C)C)C(=O)N[C@H](C(=O)N(C)[C@@H](Cc2ccccc2)C(=O)N[C@@H](C)C(=O)N2CCCCC2)CC(=O)N(C)CCC(=O)N1C [DP-201] ([NMeβAla][NMeL][NMeF]T[NMeA]V[NMeL][NMeL]D[NMeF]A-Piperidide; lactam N-9) | 27 ×10⁻⁶ cm/s | 209 µL/min/mg |
| CC(C)C[C@H]1C(=O)N(C)[C@@H](Cc2ccccc2)C(=O)N[C@@H]([C@@H](C)O)C(=O)N(C)[C@@H](C)C(=O)N(C)[C@@H](CC(C)C)C(=O)N[C@@H](C(C)C)C(=O)N(C)[C@@H](CC(C)C)C(=O)N[C@H](C(=O)N(C)[C@@H](Cc2ccccc2)C(=O)N[C@@H](C)C(=O)N2CCCCC2)CC(=O)N(C)CC(=O)N1C [DP-202] ([Sar][NMeL][NMeF]T[NMeA][NMeL]V[NMeL]D[NMeF]A-Piperidide; lactam N-9) | 55 ×10⁻⁶ cm/s | 134 µL/min/mg |
| CC(C)C[C@H]1C(=O)N[C@H](C(=O)N(C)[C@@H](Cc2ccccc2)C(=O)N(C)[C@@H](Cc2ccccc2)C(=O)N[C@@H](C)C(=O)N2CCCCC2)CC(=O)N[C@@H](C)C(=O)N(C)[C@@H](Cc2ccccc2)C(=O)N(C)[C@@H](C)C(=O)N(C)[C@@H](CC(C)C)C(=O)N[C@@H]([C@@H](C)O)C(=O)N(C)[C@@H](C)C(=O)N(C)[C@@H](CC(C)C)C(=O)N[C@@H](C(C)C)C(=O)N1C [DP-203] (A[NMeF][NMeA][NMeL]T[NMeA][NMeL]V[NMeL]D[NMeF][NMeF]A-Piperidide; lactam N-10) | 11 ×10⁻⁶ cm/s | 18 µL/min/mg |
| CC(C)C[C@H]1C(=O)N[C@H](C(=O)N(C)[C@@H](Cc2ccccc2)C(=O)N(C)[C@@H](Cc2ccccc2)C(=O)N[C@@H](C)C(=O)N2CCCCC2)CC(=O)N[C@H](C)C(=O)N(C)[C@@H](C)C(=O)N(C)[C@@H](Cc2ccccc2)C(=O)N(C)[C@@H](CC(C)C)C(=O)N[C@@H]([C@@H](C)O)C(=O)N(C)[C@@H](C)C(=O)N(C)[C@@H](CC(C)C)C(=O)N[C@@H](C(C)C)C(=O)N1C [DP-204] ([dA][NMeA][NMeF][NMeL]T[NMeA][NMeL]V[NMeL]D[NMeF][NMeF]A-Piperidide; lactam N-10) | 22 ×10⁻⁶ cm/s | 48 µL/min/mg |
| CC(C)C[C@H]1C(=O)N[C@@H]([C@@H](C)O)C(=O)N(C)[C@@H](Cc2ccccc2)C(=O)N(C)[C@@H](CC(C)C)C(=O)NCC(=O)N(C)[C@@H](C(C)C)C(=O)N[C@@H](Cc2ccccc2)C(=O)N[C@H](C(=O)N(C)[C@@H](Cc2ccccc2)C(=O)N(C)[C@@H](Cc2ccccc2)C(=O)N[C@@H](C)C(=O)N2CCCCC2)CC(=O)N[C@H](C(C)C)C(=O)N[C@@H](C(C)C)C(=O)N1C [DP-205] ([dV]V[NMeL]T[NMeF][NMeL]G[NMeV]FD[NMeF][NMeF]A-Piperidide; lactam N-10) | 0.12 ×10⁻⁶ cm/s | 29 µL/min/mg |

— US9409952B2, “Peptide-compound cyclization method” (Chugai Seiyaku Kabushiki Kaisha, priority 2011, dated 2016)
